Like-named read-outs stand apart in the source and are kept apart here.
What was measured:
pregnant rabbits [1] = settings: female, rabbit, in vivo, po
rats = assay: general toxicology studies, rats; assay type: in vivo, rat
[2] = food effect study, 5 × 100 mg capsules (KD025-105); assay type: in vivo, human; settings: for AUC(0-t) / AUC(0-inf) / Cmax / Tmax / half-life: male, human, plasma, oral, 500 mg, 5 × 100 mg capsules; for Tmax: read-out: Tmax, median (range)
Protocol: Both studies were single-center, open-label, randomized, single dose crossover studies in healthy males.
Water was permitted ad libitum except for 1 hour pre-and post-dose.
In both studies, serial blood samples for PK analysis were collected at pre-dose and 1, 2, 4, 6, 8, 12, 16, 24, and 36 hours post-dose. An additional sample at 30 hours post-dose was collected in the first study; additional samples were collected 3, 5, and 48 hours post-dose in the second study. Blood samples (5-6 mL per sample) were collected in K3EDTA tubes on ice and were processed within 30 minutes of collection, then frozen at approximately-70 to −80° C. shortly after collection.
Sample preparation was performed by protein precipitation.
Statistical analyses were performed in SAS using the PROC MIXED procedure and the Restricted Maximum Likelihood estimation method. In both studies, the presence of a food effect was evaluated by a formal statistical analysis on natural log-transformed AUC and Cmax using mixed effect modeling techniques. The model included treatment, period, and sequence as fixed effects and subject nested within sequence as a random effect. Adjusted geometric mean ratios (GMRs) and their 90% confidence intervals (CIs) were calculated for fed (test) versus fasted (reference) treatments. The absence of a food effect was to be concluded if the 90% CI was within the bioequivalence limits of 80.00 to 125.00%.

pregnant rabbits [3] = assay: embryo-fetal developmental study in rabbits; settings: rabbit

## CC(C)NC(=O)COc1cccc(-c2nc(Nc3ccc4[nH]ncc4c3)c3ccccc3n2)c1 [Belumosudil, 2-{3-[4-(1H-indazol-5-ylamino)-2-quinazolinyl]phenoxy}-N-(propan-2-yl) acetamide]
Pregnant rabbits [1]
  doses with embryo-fetal effects: ≥ 50 mg/kg/day
  doses with maternal toxicity (body weight loss and mortality): ≥ 125 mg/kg/day
rats
  dose with decreased follicular development in ovaries: 275 mg/kg/day
[2]; 500 mg capsules
  GMRs fed vs fasted for Cmax and AUC: above 125%
[2]; fasted, read-out: AUC0-24, arithmetic mean (SD)
  AUC(0-t): 7980 ng·h/mL
[2]; fasted, read-out: AUC0-24, geometric mean (geometric CV %)
  AUC(0-t): 7600 ng·h/mL
[2]; fasted, read-out: AUCinf, arithmetic mean (SD)
  AUC(0-inf): 8700 ng·h/mL
[2]; fasted, read-out: AUCinf, geometric mean (geometric CV %)
  AUC(0-inf): 8310 ng·h/mL
[2]; fasted, read-out: AUClast, arithmetic mean (SD)
  AUC(0-t): 8590 ng·h/mL
[2]; fasted, read-out: AUClast, geometric mean (geometric CV %)
  AUC(0-t): 8190 ng·h/mL
[2]; fasted, read-out: Cmax, arithmetic mean (SD)
  Cmax: 1580 ng/mL
[2]; fasted, read-out: Cmax, geometric mean (geometric CV %)
  Cmax: 1500 ng/mL
[2]; fasted
  Tmax: 2 h
[2]; fasted, read-out: t1/2, arithmetic mean (SD) (converted)
  half-life: 9.5 h
[2]; fasted, read-out: t1/2, geometric mean (geometric CV %) (converted)
  half-life: 9 h
[2]; fed, read-out: AUC0-24, arithmetic mean (SD)
  AUC(0-t): 25100 ng·h/mL
[2]; fed, read-out: AUC0-24, geometric mean (geometric CV %)
  AUC(0-t): 23300 ng·h/mL
[2]; fed, read-out: AUCinf, arithmetic mean (SD)
  AUC(0-inf): 26900 ng·h/mL
[2]; fed, read-out: AUCinf, geometric mean (geometric CV %)
  AUC(0-inf): 25100 ng·h/mL
[2]; fed, read-out: AUClast, arithmetic mean (SD)
  AUC(0-t): 26200 ng·h/mL
[2]; fed, read-out: AUClast, geometric mean (geometric CV %)
  AUC(0-t): 24400 ng·h/mL
[2]; fed, read-out: Cmax, arithmetic mean (SD)
  Cmax: 4280 ng/mL
[2]; fed, read-out: Cmax, geometric mean (geometric CV %)
  Cmax: 3780 ng/mL
[2]; fed
  Tmax: 4 h
[2]; fed, read-out: t1/2, arithmetic mean (SD) (converted)
  half-life: 8 h
[2]; fed, read-out: t1/2, geometric mean (geometric CV %) (converted)
  half-life: 7.9 h
Pregnant rabbits [3]
  maternal exposures (AUC) with adverse developmental outcomes, times human exposure at recommended dose: ≥ 0.07 times

From US20240350493A1 (Kadmon Corporation, LLC, priority 2022, published 2024)
